# Assay results from US11767303B2, “Compounds and methods for inhibiting viral replication and methods of treating and preventing flaviviral infections” (priority 2020, dated 2023).
# “Also recorded” adds a separate entry of the source.
# How the values were obtained:
# [1] = system: ZIKV strain PRVABC59 or ZIKV-Venus; test: ZIKV infection of 3D mini-brain organoids; assay type: cell-based, Zika virus; settings: 1.5 μM
# Description: Culturing of human iPSCs. Human iPSC F11350.1 culture was maintained in feed-free conditions using mTeSR1 medium (StemCell Technologies #85851) with 5× supplement (StemCell Technologies #85852). Cells were maintained on six-well plates coated with human embryonic stem cell-qualified Matrigel at a 1:60 dilution (Corning Catalog #354277) and passaged with ReLeSR (StemCell Technologies #05872). Cortical 3D organoids were generated based on the protocol described by Yoon et al. Yoon et al., “Reliability of Human Cortical Organoid Generation,” Nat. Methods. […] Briefly, iPSCs were dissociated with accutase (ThermoFisher #A1110501) and then plated at a density of 3×10^6 cells per well in AggreWell 800 24-well plate (StemCell Technologies #34811) in Essential 8™ medium (ThermoFisher #A1517001) supplemented with 10 μM rock inhibitor (Tocris #Y27632). The plate was centrifuged at 100×g for 3 min and incubated at 37° C. overnight. […]
# To evaluate if JMX0207 protects organoids from ZIKV infections, a full-length infectious ZIKV clone expressing Venus fluorescent protein (ZIKV-Venus) was first generated. […] ZIKV infection was quantified by a plaque forming unit (PFU) assay at 5 dpi and by fluorescence imaging at 7 dpi, respectively. […]
# ZIKV NS3 = test: Western blot of ZIKV NS3 and polyprotein precursor in infected A549 cells; assay type: cell-based, Zika virus; settings: MOI 0.1, 48 hrs
# Procedure: FIGS. 6A-6C show mechanism of action studies. […] Viral titers were quantified using plaque forming assay 48 hrs post-infection. DMSO was added to control. N=3. ***, p<0.001. […] N=3. […] Right, Band intensities of PP and NS3 normalized to the GAPDH control (N=3). […] Li et al., “Existing Drugs as Broad-Spectrum and Potent Inhibitors for Zika Virus by Targeting NS2B-NS3 Interaction,” Cell Res. 27:1046-1064 (2017), which is hereby incorporated by reference in its entirety. At 48 hrs post-infection, cells were washed, harvested, and protected by protease inhibitor cocktail prior to lysis by SDS-PAGE loading buffer. Upon incubation at 95° C. for 10 min, sample was subjected to Western blot analysis with anti-ZIKV NS3 (GTX133309, GeneTex, Inc.) and anti-GAPDH (CB1001, EMD Millipore) as primary antibodies. Error bars in all panels represent the standard deviations at each condition.
# Western Blot. Western blot was performed using anti-ZIKV NS3 (GTX133309, GeneTex, Inc.) and anti-GAPDH (CB1001, EMD Millipore) antibodies, as described previously. Li et al., “Existing Drugs as Broad-Spectrum and Potent Inhibitors for Zika Virus by Targeting NS2B-NS3 Interaction,” Cell Res. 27:1046-1064 (2017) and Brecher et al., “A Conformational Switch High-Throughput Screening Assay and Allosteric Inhibition of the Flavivirus NS2B-NS3 Protease,” PLoS Pathog. […]
structure (smiles),measurement,setting,value
"O=C(Nc1ccc([N+](=O)[O-])cc1Cl)c1cccc([N+](=O)[O-])c1O [JMX0207, N-(2-Chloro-4-nitrophenyl)-2-hydroxy-3-nitrobenzamide]",ZIKV infection of 3D organoid,"[1]; MOI 1, imaging/immunostaining",completely abolished ZIKV infection; also recorded: nearly completely protected the organoids from ZIKV infection
same,ZIKV production from 3D organoids,[1]; PFU assay at 5 dpi,ZIKV production was also significantly inhibited
same,unprocessed viral polyprotein precursor (PP),ZIKV NS3,dose-dependent increase of a protein with high molecular weight
same,viral NS3 protein production,ZIKV NS3,dose-dependent reduction of viral NS3 protein production
